The structures appear in SMILES notation. “Also recorded” adds a separate entry of the source.

The subject of series [1] is U87MG cells. Briefly: Microvessel density (CD31 positive microvessels) in subcutaneous U87MG tumor tissue. Format: in vivo, mouse. To be noted: LY294002 100 mg/kg/dose x 2 weeks i.p.; controls (DMSO) 50±6. As to the method:
Microvessel density (MVD) was determined for each brain tumor as described in Example I by CD31 staining, performed on cryostat sections (7 μm), fixed in acetone, blocked in 1% goat serum and stained with anti-CD31 antibody (Pharmingen, #01951D). Antibody staining was visualized with peroxidase-conjugated anti-mouse antibody and counter stained with hematoxylin. A negative control was performed on each tumor tissue stained with mouse IgG. Two sections from each tumor were scanned under low power magnification (40×) to identify areas of highest CD31 positive vessel density (Weidner et al. 1991), followed by digitization of 5 fields from this area. The digitized images representing one 100× field were counted for the number of CD31 positive vascular elements. Data was collected independently by two researchers in a blind study. The average number of microvessels per digitized 100× field was determined for 5 tumors per experimental group and analyzed by Student's t-test. […] Tumor volumes were recorded daily (FIG. 15). […] Microvessel density was assessed from multiple digitized images of CD31-stained tumor tissue at 100× magnification (3 fields were evaluated per tumor) and counted blindly for the number of CD31 positive microvessels per unit surface area as described (Weidner et al., (1991) N. Engl. J. Med. 324:1). […]

The subject of series [2] is U87MG cells. Briefly: Orthotopic (intracranial) U87MG brain tumor model in nude mice. Format: in vivo, mouse. As to conditions: examined on day 42; DMSO controls 4/5 by day 25. As to the method:
To determine whether PTEN exerts control over angiogenesis and/or the growth of glial tumors, an orthotopic brain tumor model was developed in which PTEN-deficient tumor cells were genetically manipulated in vitro and then stereotactically injected into the frontal cerebral cortex of nude mice. The U87MG cell line employed in these studies is derived from a patient diagnosed with glioblastoma multiforme, a highly malignant and uniformly fatal brain tumor. This tumor and other human glioblastomas and glioblastoma cell lines contain a mutation in both PTEN alleles (U87MG cells have a homozygous mutation in PTEN resulting in a null genotype). We also examined the effect of LY294002 on tumor growth and incidence of brain tumor in a nude mouse model. In a previous study, in vivo activity of LY294002 against an ovarian carcinoma was observed. […] In other words, the carcinoma was not assessed in its natural milieu. Hu et al., Clin. Can. Res. 6:880). […] In control mice treated with DMSO, 4/5 had grossly visible and/or histologically confirmed brain tumors by H & E analysis by day 25 after implantation, whereas in 0/5 mice treated with LY294002 had grossly detectable or histologic evidence of intracranial tumor when examined on day 42.

The test system of series [3] is U87MG cells. Briefly: Subcutaneous U87MG tumor growth in nude mice. Format: in vivo, mouse. As to conditions: LY294002 100 mg/kg daily i.p.; control approximately 400 mm3. As to the method:
LY294002 was administered at a dosage of 100 mg/kg delivered daily by intraperitoneal injection in a small volume of 100% DMSO for 2 weeks, beginning 2 days after tumor implantation. […] Control mice were injected with small volume ([…]) of 100% DMSO. Daily measurement of tumor volume was performed in 3 coordinates using calipers. To determine whether PI-3 kinase exerts control over angiogenesis or the growth of glial tumors in vivo the orthotopic brain tumor model described in Example I was utilized. To assess the effect of LY294002 on angiogenesis, we treated mice with LY294002 (100 mg/kg/dose×2 weeks) or DMSO as negative control. Tumor volumes were recorded daily (FIG. 15). On day 14 we stained cryostat sections from subcutaneous tumors for CD31 (PECAM). CD31 is an endothelial marker used to measure the microvessel density of these tumors. Microvessel density was assessed from multiple digitized images of CD31-stained tumor tissue at 100× magnification (3 fields were evaluated per tumor) and counted blindly for the number of CD31 positive microvessels per unit surface area as described (Weidner et al., (1991) N. Engl. J. Med. 324:1). […] Importantly, microvessel determinations were performed on day 7 after implantation to compare angiogenic activity of tumors of similar size. […]

A short description of series [4]: Tolerability of treatment in tumor-bearing mice. Format: in vivo, mouse. As to conditions: 100 mg/kg daily i.p. in 100% DMSO for 2 weeks. As to the method: LY294002 was administered at a dosage of 100 mg/kg delivered daily by intraperitoneal injection in a small volume of 100% DMSO for 2 weeks, beginning 2 days after tumor implantation. […] Control mice were injected with small volume ([…]) of 100% DMSO. Daily measurement of tumor volume was performed in 3 coordinates using calipers.

Series [5] deals with Cbl. Briefly: Tyrosine phosphorylation of Cbl after stimulation with sensitized sRBCs (Cbl IP, anti-phosphotyrosine immunoblot). Format: cell-based, mouse. For orientation: Immunoblotting shows a protein as a band on a membrane.
Series [6] concerns J774A.1 cells. Briefly: Fcγ receptor mediated phagocytosis of IgG sensitized sRBCs by J774A.1 cells (phagocytic index). Format: cell-based, mouse.
Series [7] has as its system Glioblastoma cells engineered to stably express wild-type PTEN. Briefly: MTT viable cell assay, chemosensitivity of glioblastoma cells stably expressing wild-type PTEN. Format: cell-based, human. As to the method:
(§1) MTT assays. Cells were seeded (6000/well) into a 96 well plate. Twenty-four hours later the growth medium was changed to 1% serum and other reagents were added as described. Treatments proceeded for 24-72 h. At each time point the MTT assay was performed. MTT (10 ul of a 5 mg/ml stock solution dissolved in RPMI medium) is added to each well of cultures 4 hours before quantitation of viable cell number by measuring absorbance in each well at 650 nm with a microplate reader (Molecular Devises,) Agents added to cell LY294002 alone or in combination with etoposide. In addition, comparison was made between U87MG cells null for PTEN and reconstituted with PTEN protein. The absorbance of each well was measured at […] with a microplate reader.
(In general: Tetrazolium dyes change colour on reduction, which living cells bring about.)

The subject of series [8] is U87MG glioblastoma cells, null for PTEN. Briefly: MTT viable cell assay, chemosensitivity of parental PTEN-null U87MG glioblastoma cells. Type of series: cell-based, human. As to the method: as §1

For the compound `O=c1cc(N2CCOCC2)oc2c(-c3ccccc3)cccc12` [LY294002], the “microvessel density (MVD), CD31 positive microvessels” value in series [1] is 22±5. In series [2], the “mice with grossly detectable or histologic evidence of intracranial tumor” value is reported as 0/5. Moreover, the “tumor size at the time of microvessel analysis” value in series [3] is listed as “approximately 35 mm3”. In addition, in series [4], the “untoward effects in treated mice” value is “No untoward effects”.

Turning to `Cc1ccc(-c2nn(C(C)(C)C)c3ncnc(N)c23)cc1` [PP1], the “tyrosine phosphorylation of Cbl induced by sensitized sRBCs” value in series [5] (PP1 10 μM, stimulation with sRBCs 5 minutes) is on record as “inhibited significantly; also recorded: abrogated”. In addition, in series [5] (data not shown), the “dose dependence of the effect on Cbl tyrosine phosphorylation” value was “dose dependent”. Further, the “basal tyrosine phosphorylation levels of Cbl” value in series [5] (resting cells) was “suppressed the basal tyrosine phosphorylation levels of Cbl”. In addition, in series [6] (PP1 10 μM, 1 h pretreatment, target to effector ratio 100:1), the “inhibition of phagocytosis of IgG coated sRBCs (phagocytic index)” value was “completely abrogated phagocytosis; also recorded: blocks the phagocytosis significantly”. Besides, the “dose dependence of inhibition of phagocytosis” value in series [6] (PP1 1, 5, 10 μM) is given as “dose dependent manner”. Besides, the “inhibition of phagocytosis of sensitized sRBCs” value in series [6] (preincubation of the cells, concentration not given) is “inhibit this response”.

For the compound `COc1cc([C@@H]2c3cc4c(cc3[C@@H](O[C@@H]3O[C@@H]5CO[C@@H](C)O[C@H]5[C@H](O)[C@H]3O)[C@H]3COC(=O)[C@H]23)OCO4)cc(OC)c1O` [etoposide], the “increase in sensitivity to etoposide, wild-type PTEN versus PTEN-null cells” value in series [7] (0.047 μM versus 4.7 μM) worked out at 100 fold. Also, the IC50 in series [7] (Homo sapiens, cells stably expressing wild-type PTEN, read-out: etoposide required to achieve a 50% cell kill) is 47 nM; in series [8] (Homo sapiens, U-87 MG, U87MG null for PTEN, or cells stably expressing catalytically inactive PTEN (R130M cells), read-out: etoposide required to achieve a 50% cell kill), 4700 nM. In series [8] (etoposide 1 uM), the “cytotoxic activity of etoposide alone” value was “minimal cytotoxic activity”.

(Values after patent US8163691B2, “Compositions and methods for identifying agents which modulate PTEN function and PI-3 kinase pathways” (Indiana University Research & Research Corporation, priority 2000, dated 2012).)
